The text below walks through data of patent US5961482A, “Iontotherapeutic device and process and iontotherapeutic unit dose” (Rutgers, The State University Of New Jersey, priority 1996, dated 1999).

Where a name gives a salt, the structure may show the parent alone. Read-outs that look alike come from different tables or passages of the source.

The conditions of series [1]: for Cumulative Amount of Drug Absorbed: donor 6.2 mg/ml pH 9.0, 37° C.
Series [2] is described as follows: In vitro skin permeation of insulin, Valia-Chien cell, I^125-insulin scintillation counting. Particulars: for Skin Permeation Rate: 5.3 IU/ml, pH 7.1. In kind it is in vitro ADME, hairless rat. As for the experimental part:
(§1) An aqueous solution of insulin (5.3 IU/ml containing 0.3 mcCi of I^125 -insulin) is prepared and adjusted to pH 7.1 using NaOH. An aliquot of 3.5 ml of this insulin solution is filled into the refillable dosage unit having a microporous membrane as the drug-releasing surface. The dosage unit is then assembled as a part of the pharmaceutical reservoir electrode of the iontotherapeutic device and membrane surface thereof is applied to the stratum corneum side of hairless rat skin mounted in the Valia-Chien skin permeation cell at 37° C. Samples are withdrawn at regular time intervals and radioactivity is measured by scintillation counter to determine the amount of insulin which has been transdermally absorbed.
as §1, with “pH 3.7, 5.2 or” for “pH”, “either HCl or NaOH solution.” for “NaOH.”, “radio-activity” for “radioactivity”

For series [3], the system named is blood glucose level (B.G.L.) in the diabetic hairless rats. The series can be described thus: Reduction in blood glucose level in diabetic hairless rats. In kind it is in vivo. As for the experimental part:
An aqueous solution of insulin at a concentration of 250 IU/ml is prepared by dissolving 193.8 mg (25.8 IU/mg) of pure porcine insulin in 20 ml of citrate buffer at pH 3.6. Two ml of the insulin solution so prepared is filled into a refillable dosage unit having a microporous membrane as the drug-releasing surface. This insulin-containing reservoir-type dosage unit is then assembled as a part of the pharmaceutical reservoir electrode of the iontotherapeutic device and applied successively on the abdominal skin of 9 diabetic hairless rats with the transdermal periodic iontotherapeutic system operating at 1 mA with square waveform mode to study the effect of frequency, on/off ratio and treatment duration on the reduction of blood glucose level. The results are shown and compared, respectively, in FIGS. 16, 17 and 18.
The same insulin solution is prepared in the same way as in Example 1, except that a phosphate buffer at pH 7.1 is used to replace the double-distilled water. Two ml of the insulin solution so prepared is filled into a refillable dosage unit having a microporous membrane as the drug-releasing surface. This unit dose is applied to 3 diabetic hairless rats following the same operation procedures as in Example 3 to study the effect of treatment duration on the reduction of blood glucose level.
(§2) An aqueous buffer solution of insulin (250 IU/ml) is prepared in citrate-phosphate buffer at pH 3.68. An aliquot of 2.5 ml of this insulin solution is filled into the refillable dosage unit having a microporous membrane as the drug-releasing surface. The dosage unit is then assembled as a part of the pharmaceutical reservoir electrode of the iontotherapeutic device and membrane surface thereof is applied to the skin at abdominal region of 3 groups of anaesthetized, diabetic hairless rats. Blood samples are withdrawn at regular time intervals and glucose levels are measured by glucose analyzer. The reduction in glucose level from hyperglycemic state is the pharmacodynamic responses to the insulin absorbed transdermally.
as §2, with “5” for “3 groups of”

Series [4] in a line: Plasma immunoreactive insulin concentration in diabetic rabbits by radioimmunoassay. In kind it is in vivo. The following applies: TPIS 1 mA, 500 IU/ml pH 7.10. As to the method:
(§3) An aqueous solution of insulin (500 IU/ml) at pH 7.10 is used. An aliquot of 2.5 ml of this insulin solution is filled into the refillable dosage unit having a microporous membrane as the drug-releasing surface. The dosage unit is then assembled as a part of the pharmaceutical reservoir electrode of the iontotherapeutic device and membrane surface thereof is applied to the skin at dorsal region of 3 diabetic rabbits. Blood samples are withdrawn at regular time intervals and analyzed for immunoreactive insulin concentration by radioimmunoassay and for glucose levels by glucose analyzer. The reduction in glucose level from hyperglycemic state is the pharmacodynamic responses to the insulin transdermally absorbed.
An aqueous solution of insulin (500 IU/ml) at pH 7.10 is used. An aliquot of 2.5 ml of this insulin solution is filled into the refillable dosage unit having a microporous membrane as the drug-releasing surface. The dosage unit is then assembled as a part of the pharmaceutical reservoir electrode of the iontotherapeutic device and membrane surface thereof is applied to the abdominal skin of 2 groups of diabetic rabbits. Blood samples are withdrawn at regular time intervals and analyzed for immunoreactive insulin concentration by radioimmunoassay and for glucose levels by glucose analyzer. […]

Series [5] relates to blood glucose level (B.G.L.) in diabetic rabbits. The experiment in a line: Reduction of blood glucose levels in diabetic rabbits by glucose analyzer. In kind it is in vivo. As to the method: as §3
An aqueous solution of insulin (500 IU/ml) at pH 7.10 is used. An aliquot of 2.5 ml of this insulin solution is filled into the refillable dosage unit having a microporous membrane as the drug-releasing surface. The dosage unit is then assembled as a part of the pharmaceutical reservoir electrode of the iontotherapeutic device and membrane surface thereof is applied to the abdominal skin of 2 groups of diabetic rabbits. Blood samples are withdrawn at regular time intervals and analyzed for immunoreactive insulin concentration by radioimmunoassay and for glucose levels by glucose analyzer. The reduction in glucose level from hyperglycemic state is the pharmacodynamic responses to the insulin transdermally absorbed.

The conditions of series [6]: for Tlag: printed beside pH 4.0 value.

As for `CN(C)[C@@H]1C(=O)C(C(N)=O)=C(O)[C@@]2(O)C(=O)C3=C(O)c4c(O)cccc4[C@@](C)(O)[C@H]3C[C@@H]12` [Tetracycline HCl, tetracycline HCl], the “Cumulative Amount of Drug Absorbed” value came to 0.0180 mcg/cm^2 in series [1] (No TPIS, 1.25 hrs); 0.0550 mcg/cm^2 in series [1] (No TPIS, 2.25 hrs); 0.0650 mcg/cm^2 in series [1] (No TPIS, 3.25 hrs); 0.1450 mcg/cm^2 in series [1] (No TPIS, 4.25 hrs); 0.3040 mcg/cm^2 in series [1] (No TPIS, 5.25 hrs); 0.1765 mcg/cm^2 in series [1] (With TPIS (1 mA, 10 min/hr, 2000 Hz, square, on/off 4/1), 1.25 hrs). Moreover, the “Cumulative Amount of Drug Absorbed” value in series [1] (With TPIS (1 mA, 10 min/hr, 2000 Hz, square, on/off 4/1), 2.25 hrs) is given as 0.2555 mcg/cm^2; in series [1] (With TPIS (1 mA, 10 min/hr, 2000 Hz, square, on/off 4/1), 3.25 hrs), 0.7815 mcg/cm^2; in series [1] (With TPIS (1 mA, 10 min/hr, 2000 Hz, square, on/off 4/1), 4.25 hrs) it was 1.3235 mcg/cm^2; in series [1] (With TPIS (1 mA, 10 min/hr, 2000 Hz, square, on/off 4/1), 5.25 hrs), 3.5600 mcg/cm^2.
Consider insulin, for which the Skin Permeation Rate was 37.5 (±4.5) mcIU/cm^2 /hr in series [2] (TIDD 1 mA, 0 Hz, 5 min per 60 min for 7 hrs) and 3.94±0.29 mcIU/cm^2 /hr in series [2] (no iontotherapy, 48 hours). In addition, in series [2] (lower pH solution (pH 3.7) vs pH 5.2 and 7.1), the “increase in TPIS-facilitated skin permeability, pH dependence” value is reported as “greater increase”. Further, the blood glucose levels result is given as “reduced substantially” in series [3] (TPIS 1 mA, 2 KHz, on/off 1/1, 40 min, 250 IU/ml pH 3.68, waveforms compared) and “reduced substantially” in series [5] (TPIS 1 mA, 2 KHz, on/off 1/1, square, 40 min, 500 IU/ml pH 7.10, dorsal skin). In series [3] (TPIS 1 mA, 2 KHz, square, on/off 1/1, 40 min, 250 IU/ml pH 3.68, Day 1), the “blood glucose levels, Day 1” value is “reduced substantially”. Moreover, in series [3] (TPIS 1 mA, on/off 1/1, 1000 Hz, pH 7.1), the “reduction of blood glucose level, effect of treatment duration” value was “difference in the rate and the duration, but with equal effectiveness”. The “reduction of blood glucose level, effect of treatment duration 20-40 minutes” value in series [3] (TPIS 1 mA, on/off 8/1, 2000 Hz, pH 3.6) is “equally effective”. Also, the “reduction of blood glucose level, 2000 Hz vs 1000 Hz” value in series [3] (TPIS 1 mA, square waveform, frequency of 2000 Hz vs 1000 Hz, pH 3.6) was “greater magnitude and a longer duration of reduction”. Moreover, the “blood glucose, Day 3” value in series [3] (TPIS on Day 3 with no insulin in electrode, after insulin delivered on Day 1 (skin depot)) is reported as “also reduced”. For the same molecule, in series [4] (2 KHz, on/off 1/1, square, 40 min, dorsal skin), the “plasma immunoreactive insulin concentration” value was “increases rapidly”. Also, the “plasma immunoreactive insulin concentration, TPIS vs TIDD” value in series [4] (40 min vs TIDD 4 mA, 80 min, abdominal skin) is listed as “increases more rapidly”. Besides, in series [5] (TIDD (4× current, 2× administration time), pH 7.10), the “reduction of blood glucose level by TIDD” value is “lower than the normoglycemic level”. Besides, in series [5] (TPIS 1 mA, 40 min vs TIDD 4 mA, 80 min, 500 IU/ml pH 7.10, abdominal skin), the “blood glucose levels, TPIS vs TIDD” value is given as “reduced more instantaneously”. Also, in series [5] (TPIS, from hyperglycemic level, pH 7.10), the “reduction of blood glucose level by TPIS” value was “near instantaneous reduction”. In series [5] (TPIS, pH 7.1, compared with subcutaneous administration), the “blood glucose level control by TPIS vs SC” value was “controlled at a highly constant level”.
Consider `COc1ccc2c3c1O[C@H]1C(=O)CC[C@H]4[C@@H](C2)N(C)CC[C@]314` [Hydrocodone, hydrocodone], for which the Skin Permeation Rate in series [6] (Control, pH 4.0) worked out at 3.10 mcg/cm^2 /hr; in series [6] (Control, pH 7.5, ± S.D.) it was 4.75 ± 1.70 mcg/cm^2 /hr; in series [6] (DC mode, 1 mA, 2 min hourly for 12 hours, pH 4.0), 37.5 mcg/cm^2 /hr; in series [6] (DC mode, 1 mA, 2 min hourly for 12 hours, pH 7.5, ± S.D.), 7.61 ± 2.74 mcg/cm^2 /hr; in series [6] (periodic wave mode, square wave, 2000 Hz, on/off 1/1, 1 mA, 2 min hourly, pH 4.0), 59.4 mcg/cm^2 /hr; in series [6] (periodic wave mode, square wave, 2000 Hz, on/off 1/1, 1 mA, 2 min hourly, pH 7.5, ± S.D.), 7.01 ± 1.16 mcg/cm^2 /hr. Further, the Tlag in series [6] (Control) stood at 5.17 h; in series [6] (DC mode, 1 mA, 2 min hourly), 0.72 h; in series [6] (periodic wave mode, 2000 Hz, on/off 1/1, 1 mA), 0.90 h.
With `COc1ccc2c(c1)c(CC(=O)O)c(C)n2C(=O)c1ccc(Cl)cc1` [Indomethacin, indomethacin], the “Skin Permeation Rate” value was 1.47 mcg/cm^2 /hr in series [1] (No TPIS, pH 5.5); 0.76 mcg/cm^2 /hr in series [1] (With TPIS (1.2 mA, 5 min/hr for 7 hours, 2000 Hz, square, on/off 2/1), pH 2.5); 0.44 mcg/cm^2 /hr in series [1] (With TPIS (1.2 mA, 5 min/hr for 7 hours, 2000 Hz, square, on/off 2/1), pH 4.5); 6.30 mcg/cm^2 /hr in series [1] (With TPIS (1.2 mA, 5 min/hr for 7 hours, 2000 Hz, square, on/off 2/1), pH 5.5).
